≈ marks a conversion by molar mass, not a printed value.
Experiments:
[1] = molecular target: T1, Histone acetyltransferase p300 (Homo sapiens, UniProt Q09472); test: Inhibition of N-terminal His tagged human EP300 (1159-1666 residues) expressed in Escherichia coli BL21 (DE3) using biotinylated H4 (1 to 25)-GSGSK peptide as substrate incubated for 1 hr by AlphaLISA assay
[2] = molecular target: T1, Histone acetyltransferase p300; test: Inhibition of EP300 in human LK2 cells assessed as reduction in intracellular histone H3 acetylation at lysine 27 residue incubated for 3 hrs by chemiluminescence based ELISA; assay type: cell-based
[3] = Metabolic stability in mouse liver microsomes assessed as parent compound remaining measured after 0.5 hr; assay type: ADME, Microsome; conditions: read-out: Stability
[4] = molecular target: T2, CREB-binding protein (Homo sapiens, UniProt Q92793); test: Inhibition of CBP (unknown origin) using biotinylated H4 (1 to […])-GSGSK peptide as substrate incubated for 1 hr by AlphaLISA assay
Target sequence in this assay (Q92793 whole entry): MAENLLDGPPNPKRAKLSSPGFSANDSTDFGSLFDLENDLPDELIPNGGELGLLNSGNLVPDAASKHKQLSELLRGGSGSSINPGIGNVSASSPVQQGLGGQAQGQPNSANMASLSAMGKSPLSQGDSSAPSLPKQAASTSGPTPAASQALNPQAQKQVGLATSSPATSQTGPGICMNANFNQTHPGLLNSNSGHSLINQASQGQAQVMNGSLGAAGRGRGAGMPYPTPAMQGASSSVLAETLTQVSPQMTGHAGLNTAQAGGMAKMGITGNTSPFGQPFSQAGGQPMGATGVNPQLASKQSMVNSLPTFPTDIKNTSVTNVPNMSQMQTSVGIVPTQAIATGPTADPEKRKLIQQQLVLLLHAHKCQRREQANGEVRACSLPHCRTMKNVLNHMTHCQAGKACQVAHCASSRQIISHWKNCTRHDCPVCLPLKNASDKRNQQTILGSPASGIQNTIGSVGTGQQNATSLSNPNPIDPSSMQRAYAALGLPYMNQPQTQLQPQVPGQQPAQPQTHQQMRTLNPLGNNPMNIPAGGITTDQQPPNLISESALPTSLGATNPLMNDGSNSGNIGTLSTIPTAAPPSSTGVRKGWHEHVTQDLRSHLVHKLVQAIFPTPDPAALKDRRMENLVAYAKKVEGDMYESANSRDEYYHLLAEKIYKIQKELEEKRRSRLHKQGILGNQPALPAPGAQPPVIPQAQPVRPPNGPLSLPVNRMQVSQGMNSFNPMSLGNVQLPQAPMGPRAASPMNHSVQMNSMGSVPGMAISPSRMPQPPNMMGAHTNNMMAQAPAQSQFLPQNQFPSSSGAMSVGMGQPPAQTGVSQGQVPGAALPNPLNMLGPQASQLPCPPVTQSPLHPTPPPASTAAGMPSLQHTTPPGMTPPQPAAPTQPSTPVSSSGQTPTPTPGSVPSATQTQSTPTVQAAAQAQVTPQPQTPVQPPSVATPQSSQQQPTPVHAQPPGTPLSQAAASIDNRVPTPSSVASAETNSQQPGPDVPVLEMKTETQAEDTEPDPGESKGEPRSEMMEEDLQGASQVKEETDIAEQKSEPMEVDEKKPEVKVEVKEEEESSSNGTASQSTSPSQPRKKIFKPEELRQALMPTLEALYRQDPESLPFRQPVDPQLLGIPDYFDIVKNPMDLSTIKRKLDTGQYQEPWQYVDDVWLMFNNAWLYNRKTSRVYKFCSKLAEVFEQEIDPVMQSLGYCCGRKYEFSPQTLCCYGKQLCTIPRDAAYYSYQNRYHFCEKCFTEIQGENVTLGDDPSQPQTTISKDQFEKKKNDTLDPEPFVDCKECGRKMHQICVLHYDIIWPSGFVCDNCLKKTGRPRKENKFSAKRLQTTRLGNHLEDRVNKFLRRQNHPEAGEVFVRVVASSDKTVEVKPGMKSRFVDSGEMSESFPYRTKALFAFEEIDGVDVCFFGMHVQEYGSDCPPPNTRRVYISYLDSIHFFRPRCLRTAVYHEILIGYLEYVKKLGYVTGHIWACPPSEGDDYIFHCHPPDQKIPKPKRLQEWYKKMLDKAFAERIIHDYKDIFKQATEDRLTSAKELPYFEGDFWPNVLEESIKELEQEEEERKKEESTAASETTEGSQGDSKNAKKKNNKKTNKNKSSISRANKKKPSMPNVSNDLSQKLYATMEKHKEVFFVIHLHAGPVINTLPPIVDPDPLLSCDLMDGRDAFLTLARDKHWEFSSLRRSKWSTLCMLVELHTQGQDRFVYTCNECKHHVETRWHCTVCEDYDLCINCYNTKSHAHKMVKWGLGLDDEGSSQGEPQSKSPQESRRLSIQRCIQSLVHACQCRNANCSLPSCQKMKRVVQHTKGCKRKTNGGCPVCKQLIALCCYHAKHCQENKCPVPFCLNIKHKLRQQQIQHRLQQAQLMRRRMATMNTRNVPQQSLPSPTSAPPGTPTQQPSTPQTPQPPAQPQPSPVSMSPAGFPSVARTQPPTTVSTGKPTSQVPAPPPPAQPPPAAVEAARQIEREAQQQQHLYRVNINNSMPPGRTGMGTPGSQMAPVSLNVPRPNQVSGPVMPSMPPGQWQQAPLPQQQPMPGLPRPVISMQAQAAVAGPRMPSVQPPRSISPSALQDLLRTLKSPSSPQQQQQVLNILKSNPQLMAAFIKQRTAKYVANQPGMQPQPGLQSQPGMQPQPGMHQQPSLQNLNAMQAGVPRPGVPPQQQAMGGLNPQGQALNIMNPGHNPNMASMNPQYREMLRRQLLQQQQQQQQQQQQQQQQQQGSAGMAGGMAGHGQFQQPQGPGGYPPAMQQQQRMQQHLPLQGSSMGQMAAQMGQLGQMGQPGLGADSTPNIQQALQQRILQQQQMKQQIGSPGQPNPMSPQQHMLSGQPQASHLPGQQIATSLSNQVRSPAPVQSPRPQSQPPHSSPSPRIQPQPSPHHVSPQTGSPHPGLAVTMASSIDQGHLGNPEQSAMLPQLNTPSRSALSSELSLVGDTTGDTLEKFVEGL

[5] = molecular target: Histone acetyltransferase KAT5 (Homo sapiens, UniProt Q92993); test: Inhibition of GST tagged human TIP60 expressed in Sf9 cells using biotinylated H4 (1 to 25)-GSGSK peptide as substrate incubated for 1 hr by AlphaLISA assay
[6] = molecular target: Histone acetyltransferase KAT7 (Homo sapiens, UniProt O95251); test: Inhibition of MYST2 (unknown origin) using biotinylated H4 (1 to […])-GSGSK peptide as substrate incubated for 1 hr by AlphaLISA assay
[7] = molecular target: Histone acetyltransferase KAT6B (Homo sapiens, UniProt Q8WYB5); test: Inhibition of MYST4 (unknown origin) using biotinylated H4 (1 to […])-GSGSK peptide as substrate incubated for 1 hr by AlphaLISA assay
[8] = molecular target: Histone acetyltransferase KAT2B (Homo sapiens, UniProt Q92831); test: Inhibition of GST tagged human PCAF (431 to end residues) expressed in Sf9 cells using biotinylated H3 (1 to 21)-GGK peptide as substrate incubated for 1 hr by AlphaLISA assay
[9] = molecular target: Histone acetyltransferase KAT2A (Homo sapiens, UniProt Q92830); test: Inhibition of GST tagged human GCN5 (323 to end residues) expressed in Sf9 cells using biotinylated H3 (1 to 21)-GGK peptide as substrate incubated for 1 hr by AlphaLISA assay
[10] = molecular target: T2, CREB-binding protein; test: Inhibition of CBP (unknown origin) at 50 uM using biotinylated H4 (1 to 25)-GSGSK peptide as substrate incubated for 1 hr by AlphaLISA assay relative to control
[11] = Inhibition of SOX2 mRNA expression in human LK2 cells incubated for 6 hrs by RT-qPCR analysis; assay type: functional, cell-based; conditions: LK-2, 6 h
[12] = Solubility of the compound at pH 1.2; assay type: physicochemical; conditions: buffer
[13] = Solubility of the compound at pH 6.8; assay type: physicochemical; conditions: buffer
[14] = Lipophilicity, logD of compound; assay type: physicochemical; conditions: octanol/water
[15] = Permeability of compound at pH 7.4 by PAMPA assay; assay type: ADME; conditions: read-out: permeability
[16] = Permeability of compound at pH 5.0 by PAMPA assay; assay type: ADME; conditions: read-out: permeability
[17] = Protein binding in mouse plasma assessed as unbound fraction; assay type: ADME, cell-free
[18] = test system: LK-2; test: Antitumor activity against human LK2 cells xenografted in BALB/c nude mouse assessed as suppression of SOX2 mRNA level in […] at 50 to 200 mg/kg, po and measured after 6 hrs by qRT-PCR analysis relative to GADPH; assay type: functional, organism-based; conditions: dose 50-200 mg/kg, DDE = dose-dependent effect
[19] = test system: LK-2; test: Antitumor activity against human LK2 cells xenografted in BALB/c nude mouse assessed as suppression of SOX2 mRNA level in tumor at 50 to 200 mg/kg, po and measured after 6 hrs by qRT-PCR analysis relative to GADPH; assay type: functional, organism-based; conditions: dose 50-200 mg/kg, DDE = dose-dependent effect

T1 sequence (Q09472 whole entry, the tested form may be a part): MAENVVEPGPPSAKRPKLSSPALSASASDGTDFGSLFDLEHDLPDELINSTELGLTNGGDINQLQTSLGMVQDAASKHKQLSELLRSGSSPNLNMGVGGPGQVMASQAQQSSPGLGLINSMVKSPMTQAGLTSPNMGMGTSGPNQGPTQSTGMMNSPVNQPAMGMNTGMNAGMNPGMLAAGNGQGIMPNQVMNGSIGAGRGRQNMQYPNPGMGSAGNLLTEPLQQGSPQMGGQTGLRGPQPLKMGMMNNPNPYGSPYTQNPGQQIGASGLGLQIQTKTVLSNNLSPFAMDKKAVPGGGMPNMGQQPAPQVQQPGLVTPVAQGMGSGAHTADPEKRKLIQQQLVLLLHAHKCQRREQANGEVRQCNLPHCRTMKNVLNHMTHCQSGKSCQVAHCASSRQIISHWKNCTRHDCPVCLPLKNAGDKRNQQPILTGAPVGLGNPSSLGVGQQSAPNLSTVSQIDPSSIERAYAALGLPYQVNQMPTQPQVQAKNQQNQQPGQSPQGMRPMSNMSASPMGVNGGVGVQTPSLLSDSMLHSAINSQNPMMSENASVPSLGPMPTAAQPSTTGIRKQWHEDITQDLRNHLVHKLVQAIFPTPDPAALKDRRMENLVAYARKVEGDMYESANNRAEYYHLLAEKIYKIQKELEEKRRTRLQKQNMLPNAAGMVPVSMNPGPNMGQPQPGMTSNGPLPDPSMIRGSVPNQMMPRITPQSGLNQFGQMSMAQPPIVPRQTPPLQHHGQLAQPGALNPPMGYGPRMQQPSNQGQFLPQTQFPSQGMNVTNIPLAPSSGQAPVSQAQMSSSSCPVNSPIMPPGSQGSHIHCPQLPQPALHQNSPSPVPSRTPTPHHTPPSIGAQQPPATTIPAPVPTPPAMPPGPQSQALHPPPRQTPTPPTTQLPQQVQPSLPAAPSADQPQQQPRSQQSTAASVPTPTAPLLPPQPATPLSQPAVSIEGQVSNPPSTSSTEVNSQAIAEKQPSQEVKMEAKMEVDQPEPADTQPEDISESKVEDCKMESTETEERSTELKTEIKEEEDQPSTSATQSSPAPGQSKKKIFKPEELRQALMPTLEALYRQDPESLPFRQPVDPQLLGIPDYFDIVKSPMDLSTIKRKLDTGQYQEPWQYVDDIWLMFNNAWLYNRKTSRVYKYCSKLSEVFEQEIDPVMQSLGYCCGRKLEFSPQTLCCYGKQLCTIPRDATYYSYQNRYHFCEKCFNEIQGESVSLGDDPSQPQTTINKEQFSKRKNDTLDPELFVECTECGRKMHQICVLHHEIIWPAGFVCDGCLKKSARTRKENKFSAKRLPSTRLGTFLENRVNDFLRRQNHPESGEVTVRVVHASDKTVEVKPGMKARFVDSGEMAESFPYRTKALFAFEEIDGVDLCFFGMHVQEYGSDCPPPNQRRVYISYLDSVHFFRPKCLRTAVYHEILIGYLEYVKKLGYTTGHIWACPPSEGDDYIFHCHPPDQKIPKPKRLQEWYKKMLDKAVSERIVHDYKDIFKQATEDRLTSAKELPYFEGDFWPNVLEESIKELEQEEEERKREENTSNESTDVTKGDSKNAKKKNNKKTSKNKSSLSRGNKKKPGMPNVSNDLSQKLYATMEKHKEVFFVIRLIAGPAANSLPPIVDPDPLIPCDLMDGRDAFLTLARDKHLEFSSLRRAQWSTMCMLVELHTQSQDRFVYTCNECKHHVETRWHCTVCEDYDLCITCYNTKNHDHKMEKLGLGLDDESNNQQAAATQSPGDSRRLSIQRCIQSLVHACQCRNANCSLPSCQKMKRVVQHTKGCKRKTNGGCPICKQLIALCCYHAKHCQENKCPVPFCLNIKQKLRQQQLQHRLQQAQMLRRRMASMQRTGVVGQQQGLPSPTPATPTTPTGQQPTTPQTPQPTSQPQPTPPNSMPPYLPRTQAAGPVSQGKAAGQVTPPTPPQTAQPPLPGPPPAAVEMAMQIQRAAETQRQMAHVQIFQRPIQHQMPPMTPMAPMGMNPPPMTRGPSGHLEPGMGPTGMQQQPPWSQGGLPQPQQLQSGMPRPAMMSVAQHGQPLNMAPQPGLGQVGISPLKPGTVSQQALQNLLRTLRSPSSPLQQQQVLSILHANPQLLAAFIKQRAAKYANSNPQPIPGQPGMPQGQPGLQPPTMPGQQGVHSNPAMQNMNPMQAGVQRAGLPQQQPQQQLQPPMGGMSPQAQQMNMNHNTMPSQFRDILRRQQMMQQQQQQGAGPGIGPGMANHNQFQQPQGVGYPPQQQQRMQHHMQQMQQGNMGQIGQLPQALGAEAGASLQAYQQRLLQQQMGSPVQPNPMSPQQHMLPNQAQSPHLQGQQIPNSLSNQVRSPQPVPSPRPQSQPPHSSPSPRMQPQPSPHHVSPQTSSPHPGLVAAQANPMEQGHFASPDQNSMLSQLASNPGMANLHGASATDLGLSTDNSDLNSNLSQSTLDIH

## COc1ccc(C2(C(=O)N3C[C@@H](O)C[C@@H]3C(=O)Nc3cccc4[nH]ncc34)CCCC2)cc1
[1]
  IC50: 910 nM
[2]
  IC50: 1450 nM
[3]
  remaining at 0.5 h: 57%

## COc1ccc(C2(C(=O)N(C)CC(=O)Nc3cccc4[nH]ncc34)CCCCC2)cc1
[1]
  IC50: 190 nM
[2]
  IC50: 1010 nM

## COc1ccc(C2(C(=O)N3C[C@H](O)C[C@@H]3C(=O)Nc3cccc4[nH]ncc34)CCCC2)cc1
[2]
  IC50: 1030 nM
[3]
  remaining at 0.5 h: 47%

## COc1ccc(C2(C(=O)N3CCC[C@@H]3C(=O)Nc3cccc4[nH]ncc34)CCCC2)cc1
[1]
  IC50: 180 nM
[3]
  remaining at 0.5 h: 10%

## COc1ccc(C2(C(=O)N3CCOCC(Cc4cccc5[nH]ncc45)C3)CCCC2)cc1 (stereo in doubt; 3)
[1]
  IC50: 130 nM
[2]
  IC50: 380 nM

## COc1ccc(C2(C(=O)N3CCOCC(Cc4cccc5[nH]ncc45)C3)CCCCC2)cc1 (stereo not given)
[1]
  IC50: 140 nM
[2]
  IC50: 610 nM

## COc1ccc(C2(C(=O)N3CCC[C@@H]3C(=O)Nc3cccc4[nH]ncc34)CCCCC2)cc1
[1]
  IC50: 170 nM
[2]
  IC50: 420 nM

## COc1ccc(C2(C(=O)N3CCOCC(Cc4cccc5[nH]ncc45)C3)CCOCC2)cc1 (stereo not given)
[1]
  IC50: 610 nM
[2]
  IC50: 2240 nM

## COc1ccc(C2(C(=O)N(C)[C@H](C)C(=O)Nc3cccc4[nH]ncc34)CCCC2)cc1
[1]
  IC50: 220 nM
[2]
  IC50: 5020 nM

## CC1=NN(c2ccc(C(=O)O)cc2)C(=O)/C1=C\c1ccc(-c2cc(C)c(C)cc2[N+](=O)[O-])o1
[4]
  IC50: > 50000 nM
[5]
  IC50: 37200 nM
[6]
  IC50: 7810 nM
[7]
  IC50: 21000 nM
[8]
  IC50: 38900 nM
[9]
  IC50: 47400 nM
[10]
  inhibition: 29%

## COc1ccc(C2(C(=O)N3CS(=O)(=O)C[C@@H]3C(=O)Nc3cccc4[nH]ncc34)CCCC2)cc1
[1]
  IC50: 150 nM
[2]
  IC50: 450 nM
[3]
  remaining at 0.5 h: 37%
[11]
  IC50: 700 nM
[12]
  solubility: 63 µg/mL (≈ 131 µM)
[13]
  solubility: 50 µg/mL (≈ 104 µM)
[14]
  logD: 3.2
[15]
  Papp: > 50 ×10⁻⁶ cm/s
[16]
  Papp: > 50 ×10⁻⁶ cm/s
[17]
  fraction unbound: 0.952
[4]
  IC50: 40 nM
[18]
  Activity: Dde
[19]
  Activity: Dde

## COc1ccc(C2(C(=O)N3CCOCC(Cc4cccc5[nH]ncc45)C3)CCCC2)cc1 (single isomer, unassigned; (-))
[2]
  IC50: > 25000 nM

## COc1ccc(C2(C(=O)N3CCOCC(Cc4cccc5[nH]ncc45)C3)CCCC2)cc1 (single isomer, unassigned; (+))
[1]
  IC50: 50 nM
[2]
  IC50: 130 nM

## COc1ccc(C2(C(=O)N3C[C@H](F)C[C@@H]3C(=O)Nc3cccc4[nH]ncc34)CCCC2)cc1
[1]
  IC50: 56 nM
[2]
  IC50: 460 nM
[3]
  remaining at 0.5 h: 5%

Reference: ChEMBL document CHEMBL5143662, “Discovery of EP300/CBP histone acetyltransferase inhibitors through scaffold hopping of 1,4-oxazepane ring” (Bioorg Med Chem Lett, 2022)
